Assay results from US20180344748A1, “METHODS AND COMPOSITIONS FOR PREVENTING OR TREATING CHRONIC INFLAMMATORY DISEASES” (ENTERIN LABORATORIES, INC., priority 2017, published 2018).

What was measured:
Format in all cases: cell-based
human neutrophils = assay: Chemotaxis assay, human neutrophils; details: bell shaped concentration curve; FIG. 3A
Experimental: (§1) FIGS. 3A-F: α-Synuclein is a chemoattractant dependent on CD11b. Assays were conducted as described in the examples below. The average of 3 independent assays for each sample is presented. The concentration of the α-synuclein aggregate is in terms of the monomer. A positive control, FMLP, is noted in black. NAc 1-21, the N-acetylated peptide corresponding to the first 21 amino acids of α-synuclein; 1-25, a peptide corresponding to the first 25 amino acids. FIG. 3A=Human Neutrophils; FIG. 3B=Human monocytes; FIGS. 3C and 3D=Representative photos of the cellular response. FIG. 3E=Neutrophils from CD11b −/− or wild type mice (0.5×10^6/ml), assayed as described in the examples. FIG. 3F=Human neutrophils incubated in the presence of anti-CD11b antibody or control (50 μg/ml each). CM, control media (negative control)
(§2) Chemotaxis, or the movement of cells in response to a chemical stimulus, is routinely measured in a Boyden chamber. In this apparatus, immune cells are attached to one side of a membrane containing pores through which the immune cells can traffic. On the other side of the membrane a chemoattractant is introduced. Over the course of several hours the immune cells migrate from the side of the membrane on which they were initially placed to the side exposed to the chemoattractant. […] After 24 hours the number of immune cells that have migrated to towards the chemoattractant are counted. […]

[1] = test system: human monocyte derived dendritic cells; assay: Dendritic cell maturation, flow cytometry of surface markers; details: 10 μM, 48 h, FIG. 4
Experimental: FIG. 4: Human monocyte derived dendritic cells were incubated at 5×10^5/ml in the presence of recombinant monomeric or aggregated alpha-synuclein, and the NAc 1-21 amino terminal peptide of alpha-synuclein (each at a final concentration of 10 μM) for 48 h before they were immunostained and analyzed by flow cytometry for the expression of the indicated surface molecules. E. coli lipopolysaccharide (LPS) (100 ng/ml) was included as a positive control. Shown are the results of one experiment representative of three. The ordinate of […].
Chemotaxis assays followed published procedures. De et al. (2000). Neutrophils and monocytes were isolated from the blood of healthy human donors as described. Id. Recombinant human α-synuclein (lot #20162050, endotoxin contamination 18.6 EU/mg) was from Proteos, Inc. via the Michael J. Fox Foundation. The α-synuclein aggregates were made following a protocol provided by Proteos. […]
Human monocyte derived dendritic cells were exposed for 2 days to α-synuclein monomer, aggregate, and N—Ac 1-21 peptide and then analyzed by flow cytometry to measure the extent of phenotypic maturation, using CD80, CD83, CD86, HLA-ABC, and HLA-DR as determinants (FIG. 4).

human monocytes = assay: Chemotaxis assay, human monocytes; details: bell shaped concentration curve; FIG. 3B
Experimental: as §1, §2

Substance	chemotactic activity towards human neutrophils (human neutrophils)	dendritic cell maturation (CD80, CD83, CD86, HLA-ABC, HLA-DR) [1]	chemotactic activity towards human monocytes (human monocytes)
N-acetylated peptide: the N-acetylated peptide corresponding to the first 21 amino acids of α-synuclein	retained the chemotactic activity of the full-length protein	did not	retained the chemotactic activity of the full-length protein
peptide, extending to residue 25: a peptide corresponding to the first 25 amino acids of α-synuclein, lacking the N-acetyl moiety	inactive		inactive
